Our source for the TGI values is PubChem BioAssay (NCI).

Molecules are shown by their SMILES.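 Tested at 5 concentrations; 48 h exposure; 96-well plates; endpoints linearly interpolated, else capped at highest concentration. TGI: concentration producing complete growth inhibition.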

Some test systems named below: SK-MEL-28 melanoma; HOP-62 NSCLC; HCC-2998 colon; SNB-75 CNS; SF-539 CNS; NCI-H226 lung; UO-31 renal; M14 melanoma; IGROV1 ovarian; MDA-MB-231 breast.
Holding throughout (assay): inhibition of tumour cell growth, NCI panel, 48 h

Consider `Cn1nc(-c2ccccc2)c2c(/C=C/c3ccccc3)onc2c1=O`, for which the TGI with SK-MEL-28 melanoma was above 100 µM; in the experiment on HOP-62 NSCLC it was above 100 µM; in the experiment on HCC-2998 colon, above 100 µM; in the experiment with SNB-75 CNS, 64.5 µM; in the experiment on SF-539 CNS, above 100 µM; with NCI-H226 lung, above 100 µM. The TGI with UO-31 renal, in the experiment on M14 melanoma and in the experiment with IGROV1 ovarian was above 100 µM throughout.

As for `CC(C)(C)C(C#N)(C#N)c1ccc(C(C#N)(C#N)C(C)(C)C)nn1`, the TGI is above 100 µM in the experiment with SK-MEL-28 melanoma; above 100 µM in the experiment with HOP-62 NSCLC; above 100 µM with HCC-2998 colon; 75.2 µM with SNB-75 CNS; above 100 µM in the experiment with SF-539 CNS; above 100 µM with UO-31 renal. Also, the TGI in the experiment with M14 melanoma and with IGROV1 ovarian was above 100 µM each time.

`Cc1ccc(S(=O)(=O)N/N=C(/c2nc3ccc([N+](=O)[O-])cc3[nH]c2=O)C(O)c2ccc(C(O)/C(=N\NS(=O)(=O)c3ccc(C)cc3)c3nc4ccc([N+](=O)[O-])cc4[nH]c3=O)cc2)cc1` (stereo unspecified): the TGI was above 100 µM in the experiment on SK-MEL-28 melanoma; above 100 µM with HOP-62 NSCLC; 77.4 µM in the experiment with HCC-2998 colon; above 100 µM in the experiment on SNB-75 CNS; above 100 µM with SF-539 CNS; above 100 µM in the experiment with UO-31 renal. For the same compound, the TGI in the experiment on M14 melanoma and with IGROV1 ovarian was above 100 µM each time.

As for `COc1cccc(-c2cc(=O)c3ccccc3[nH]2)c1`, the TGI was above 100 µM in the experiment with SK-MEL-28 melanoma; above 100 µM in the experiment on HOP-62 NSCLC; 18.1 µM with HCC-2998 colon; above 100 µM with SNB-75 CNS; 18.7 µM in the experiment with SF-539 CNS; above 29.6 µM in the experiment on NCI-H226 lung. Besides, the TGI with UO-31 renal, in the experiment with M14 melanoma and in the experiment with IGROV1 ovarian was above 100 µM throughout.

On to `CCSc1c2ccccc2c(-c2nc(F)nc(F)n2)n1CCc1ccccc1`, for which the TGI in the experiment on SK-MEL-28 melanoma, with HOP-62 NSCLC, in the experiment on HCC-2998 colon, in the experiment with SF-539 CNS, in the experiment on NCI-H226 lung and in the experiment on UO-31 renal was above 100 µM in each case. Also, the TGI in the experiment with M14 melanoma was above 100 µM.

On to `C[C@]12CCC3[C@@H](CC[C@@H]4c5nonc5CC[C@]34C)C1CC[C@@H]2O` (stereo partly specified), for which the TGI is 70 µM in the experiment with SK-MEL-28 melanoma; above 100 µM with HOP-62 NSCLC; above 100 µM in the experiment with HCC-2998 colon; 77.8 µM in the experiment on SNB-75 CNS; 32.3 µM with SF-539 CNS; above 100 µM in the experiment on NCI-H226 lung. Also, the TGI in the experiment on M14 melanoma was 53 µM; in the experiment with IGROV1 ovarian it was above 100 µM.

With `Brc1ccc2ns[s+]c2c1`, the TGI is above 100 µM in the experiment on SK-MEL-28 melanoma; above 31.6 µM with HOP-62 NSCLC; 25.8 µM in the experiment on HCC-2998 colon; above 100 µM in the experiment with SNB-75 CNS; 65.3 µM with SF-539 CNS; above 100 µM with NCI-H226 lung. In addition, the TGI in the experiment with UO-31 renal was above 30.7 µM; with M14 melanoma it was 5.88 µM; in the experiment on IGROV1 ovarian, above 100 µM.

With `CC(=O)NC(CC(C)C)C(=O)NC(Cc1ccccc1)C(=S)N1CCCC1` (stereo unspecified), the TGI in the experiment with SK-MEL-28 melanoma, in the experiment on HOP-62 NSCLC, in the experiment on HCC-2998 colon, in the experiment with SNB-75 CNS, in the experiment on NCI-H226 lung and in the experiment with UO-31 renal was above 100 µM throughout. Further, the TGI in the experiment with M14 melanoma and with IGROV1 ovarian was above 100 µM throughout.

`O=c1[nH]cnc2c1nnn2CCCCCCCCCCCCn1nnc2c(=O)[nH]cnc21`: the TGI was above 100 µM with SK-MEL-28 melanoma; 54 µM with HOP-62 NSCLC; above 100 µM in the experiment with HCC-2998 colon; above 57.2 µM in the experiment on SNB-75 CNS; 54.6 µM in the experiment on SF-539 CNS; 63.5 µM in the experiment on NCI-H226 lung. The TGI in the experiment on UO-31 renal is above 100 µM; in the experiment with M14 melanoma, above 100 µM; in the experiment with IGROV1 ovarian it was above 77.8 µM.

For the compound `NC(=O)NC1C(C(N)=O)N(Cc2ccccc2)C(=O)N1Cc1ccccc1` (stereo unspecified), the TGI in the experiment with SK-MEL-28 melanoma, in the experiment with HOP-62 NSCLC, in the experiment with HCC-2998 colon, in the experiment on SNB-75 CNS, in the experiment with SF-539 CNS and in the experiment on UO-31 renal was above 100 µM each time. Also, the TGI with M14 melanoma and in the experiment on IGROV1 ovarian was above 100 µM in each case.

Regarding `CN(C)CCNC(=O)c1cccc2c1Oc1c(cccc1[N+](=O)[O-])O2`, the TGI came out at 7.87 µM with SK-MEL-28 melanoma; 2.48 µM in the experiment with HOP-62 NSCLC; 2.62 µM in the experiment with HCC-2998 colon; 3.96 µM in the experiment with SNB-75 CNS; 4.85 µM in the experiment with SF-539 CNS; 0.92 µM in the experiment with NCI-H226 lung. Further, the TGI in the experiment with M14 melanoma amounted to 16.2 µM; in the experiment on IGROV1 ovarian, 8.9 µM.

Take `CC(=O)OC1COC(n2c(=S)n(-c3ccccc3)c(=O)c3ccccc32)C(OC(C)=O)C1OC(C)=O` (stereo unspecified): the TGI in the experiment on SK-MEL-28 melanoma, in the experiment on HOP-62 NSCLC, in the experiment with HCC-2998 colon, in the experiment with SNB-75 CNS, in the experiment on SF-539 CNS and with NCI-H226 lung was above 100 µM in each case. Moreover, the TGI in the experiment on UO-31 renal, in the experiment with M14 melanoma and in the experiment with IGROV1 ovarian was above 100 µM each time.

For `CC1=C(C(=O)Nc2cc(F)c(F)cc2F)C(c2ccc([N+](=O)[O-])cc2)C(C(=O)Nc2cc(F)c(F)cc2F)=C(C)N1`, the TGI with SK-MEL-28 melanoma was above 100 µM; in the experiment on HOP-62 NSCLC, above 100 µM; in the experiment with HCC-2998 colon, 60.5 µM; with SNB-75 CNS, 63 µM; in the experiment on SF-539 CNS, above 100 µM; with NCI-H226 lung, above 100 µM. The TGI in the experiment on UO-31 renal is 70.6 µM; in the experiment on M14 melanoma, above 100 µM; in the experiment with IGROV1 ovarian, above 100 µM.

Regarding `O=C(NNc1ccccc1)/C(=C/c1ccc2c(c1)OCO2)NC(=O)c1ccccc1`, the TGI in the experiment on SK-MEL-28 melanoma, with HOP-62 NSCLC, in the experiment on HCC-2998 colon, in the experiment on SNB-75 CNS, in the experiment with SF-539 CNS and in the experiment with NCI-H226 lung was above 100 µM each time. Further, the TGI in the experiment with UO-31 renal, with M14 melanoma and in the experiment on IGROV1 ovarian was above 100 µM each time.

As to `O=C1c2ccccc2C(=O)c2c(OCCOCCO)cccc21`, the TGI in the experiment with SK-MEL-28 melanoma, in the experiment on HOP-62 NSCLC, with SNB-75 CNS, in the experiment on SF-539 CNS, with MDA-MB-231 breast and in the experiment with UO-31 renal was above 100 µM throughout. Further, the TGI in the experiment on M14 melanoma and in the experiment with IGROV1 ovarian was above 100 µM throughout.
